Experiments:
Assay type in all cases: cell-based
Proteus vulgaris = assay: MIC against Gram-negative bacteria: Proteus vulgaris
How it was run: (§1)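 MIC = lowest concentration of recombinant protein showing no growth. Test proteins: purified human-derived EGF domain proteins, two-fold dilution series, three wells per concentration; inoculum 5×10^5 CFU/mL in LB; incubation 37° C with shaking at 175 rpm.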

Aeromonas hydrophila = assay: MIC against Gram-negative bacteria: Aeromonas hydrophila
How it was run: as §1

Enterobacter cloacae = assay: MIC against Gram-negative bacteria: Enterobacter cloacae
How it was run: as §1

Proteus mirabilis = assay: MIC against Gram-negative bacteria: Proteus mirabilis
How it was run: as §1

Moraxella catarrhalis = assay: MIC against Gram-negative bacteria: Moraxella catarrhalis
How it was run: as §1

Pseudomonas aeruginosa = assay: MIC against Gram-negative bacteria: Pseudomonas aeruginosa
How it was run: as §1

E. coli BL21 = assay: MIC against Gram-negative bacteria: E. coli BL21
How it was run: as §1

Serratia marcescens = assay: MIC against Gram-negative bacteria: Serratia marcescens
How it was run: as §1

Citrobacter diversus = assay: MIC against Gram-negative bacteria: Citrobacter diversus
How it was run: as §1

E. coli DH5α = assay: Antibacterial activity: MIC and growth curve against E. coli DH5α in 96-well plate; conditions: minimal inhibitory concentration against E. coli DH5α; 96-well plate, 5×10^5 CFU/mL, 37° C., judged after 8 h
How it was run: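 Log-phase bacteria (OD600 ~0.5) resuspended in LB at 5×10^5 CFU/mL, exposed to recombinant protein at 50, 25, 12.5 μg/mL final in triplicate, 37 °C shaking at 175 rpm. OD600 read every 30 min; MIC is lowest concentration showing no growth.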

Klebsiella pneumonia = assay: MIC against Gram-negative bacteria: Klebsiella pneumonia
How it was run: as §1

[1] = 96-well plate, 5×10^5 CFU/mL, 37° C., 10 h
[2] = P. vulgaris, 10 h cultivation at 37° C., 5×10^5 CFU/mL
[3] = A. hydrophila, 10 h cultivation at 37° C., 5×10^5 CFU/mL
[4] = E. cloacae, 10 h cultivation at 37° C., 5×10^5 CFU/mL
[5] = P. mirabilis, 10 h cultivation at 37° C., 5×10^5 CFU/mL
[6] = M. catarrhalis, 10 h cultivation at 37° C., 5×10^5 CFU/mL
[7] = P. aeruginosa, 10 h cultivation at 37° C., 5×10^5 CFU/mL
[8] = E. coli BL21, 10 h cultivation at 37° C., 5×10^5 CFU/mL
[9] = S. marcescens, 10 h cultivation at 37° C., 5×10^5 CFU/mL
[10] = C. diversus, 10 h cultivation at 37° C., 5×10^5 CFU/mL
[11] = K. pneumonia, 10 h cultivation at 37° C., 5×10^5 CFU/mL
[12] = P. vulgaris, 10 h cultivation at 37° C.
[13] = A. hydrophila, 10 h cultivation at 37° C.
[14] = E. cloacae, 10 h cultivation at 37° C.
[15] = P. mirabilis, 10 h cultivation at 37° C.
[16] = M. catarrhalis, 10 h cultivation at 37° C.
[17] = P. aeruginosa, 10 h cultivation at 37° C.
[18] = E. coli BL21, 10 h cultivation at 37° C.
[19] = S. marcescens, 10 h cultivation at 37° C.
[20] = C. diversus, 10 h cultivation at 37° C.
[21] = K. pneumonia, 10 h cultivation at 37° C.
[22] = 10 h cultivation at 37° C., 5×10^5 CFU/mL, two-fold serial dilution

PRT726 (LPPPCRCMHGGNCYFDETDLPKCKCPSGYTGKYCE; listed as Homo sapiens)
25 µg/mL: MIC A. hydrophila (Aeromonas hydrophila; [1]) | MIC M. catarrhalis (Moraxella catarrhalis; [1]) | MIC P. aeruginosa (Pseudomonas aeruginosa; [1]) | MIC S. marcescens (Serratia marcescens; [1]) | MIC K. pneumonia (Klebsiella pneumonia; [1])
12.5 µg/mL: MIC E. cloacae (Enterobacter cloacae; [1]) | MIC P. mirabilis (Proteus mirabilis; [1]) | MIC (E. coli DH5α)
50 µg/mL: MIC P. vulgaris (Proteus vulgaris; [1]) | MIC E. coli BL21 (E. coli BL21; [1]) | MIC C. diversus (Citrobacter diversus; [1])

PRT557 (CGCSPAGTLPEGCDEAGRCLCQPEFAGPHCDRCRPGYHGFPNCQA; listed as Homo sapiens)
12.5 µg/mL: MIC against E. cloacae (Enterobacter cloacae; [1]) | MIC against P. mirabilis (Proteus mirabilis; [1]) | MIC against P. aeruginosa (Pseudomonas aeruginosa; [1]) | MIC against S. marcescens (Serratia marcescens; [1]) | MIC against C. diversus (Citrobacter diversus; [1]) | MIC (E. coli DH5α)
25 µg/mL: MIC against P. vulgaris (Proteus vulgaris; [1]) | MIC against A. hydrophila (Aeromonas hydrophila; [1]) | MIC against M. catarrhalis (Moraxella catarrhalis; [1]) | MIC against E. coli BL21 (E. coli BL21; [1]) | MIC against K. pneumonia (Klebsiella pneumonia; [1])

PRT563 (CVCNYLGTVQEHCNGSDCQCDKATGQCLCLPNVIGQNCDRCAPNTWQLASGTGCDP; listed as Homo sapiens)
12.5 µg/mL: MIC against P. vulgaris (Proteus vulgaris; [1]) | MIC against A. hydrophila (Aeromonas hydrophila; [1]) | MIC against E. coli BL21 (E. coli BL21; [1])
25 µg/mL: MIC against E. cloacae (Enterobacter cloacae; [1]) | MIC against P. mirabilis (Proteus mirabilis; [1]) | MIC against P. aeruginosa (Pseudomonas aeruginosa; [1]) | MIC against S. marcescens (Serratia marcescens; [1]) | MIC against C. diversus (Citrobacter diversus; [1]) | MIC (E. coli DH5α)
50 µg/mL: MIC against M. catarrhalis (Moraxella catarrhalis; [1]) | MIC against K. pneumonia (Klebsiella pneumonia; [1])

PRT432 (DVDECATDSHQCNPTQICINTEGGYTCSCTDGYWLLEGQCL; listed as Homo sapiens)
50 µg/mL: MIC (Proteus vulgaris; [2]) | MIC (Aeromonas hydrophila; [3]) | MIC (E. coli BL21; [8])
25 µg/mL: MIC (Enterobacter cloacae; [4]) | MIC (Proteus mirabilis; [5]) | MIC (Pseudomonas aeruginosa; [7]) | MIC (Serratia marcescens; [9]) | MIC (Citrobacter diversus; [10]) | MIC (E. coli DH5α)
12.5 µg/mL: MIC (Moraxella catarrhalis; [6]) | MIC (Klebsiella pneumonia; [11])

PRT978 (DVDECASQPCQHGGSCIDLVARYLCSCPPGTLGVLCE; listed as Homo sapiens)
25 µg/mL: MIC (Aeromonas hydrophila; [13]) | MIC (Proteus mirabilis; [15])
12.5 µg/mL: MIC (Enterobacter cloacae; [14]) | MIC (Moraxella catarrhalis; [16]) | MIC (Pseudomonas aeruginosa; [17]) | MIC (Serratia marcescens; [19]) | MIC (E. coli DH5α)
50 µg/mL: MIC (Proteus vulgaris; [12]) | MIC (E. coli BL21; [18]) | MIC (Citrobacter diversus; [20]) | MIC (Klebsiella pneumonia; [21])

PRT1244 (CGSTCPTCVQGSCDTVTGDCVCSAGYWGPSCN; listed as Homo sapiens)
25 µg/mL: MIC against P. mirabilis (Proteus mirabilis; Proteus mirabilis, 96-well plate, 5×10^5 CFU/mL, 37° C., 10 h) | MIC against C. diversus (Citrobacter diversus; Citrobacter diversus, 96-well plate, 5×10^5 CFU/mL, 37° C., 10 h)
12.5 µg/mL: MIC against E. cloacae (Enterobacter cloacae; Enterobacter cloacae, 96-well plate, 5×10^5 CFU/mL, 37° C., 10 h) | MIC against M. catarrhalis (Moraxella catarrhalis; Moraxella catarrhalis, 96-well plate, 5×10^5 CFU/mL, 37° C., 10 h) | MIC against E. coli BL21 (E. coli BL21; E. coli BL21, 96-well plate, 5×10^5 CFU/mL, 37° C., 10 h) | MIC against S. marcescens (Serratia marcescens; Serratia marcescens, 96-well plate, 5×10^5 CFU/mL, 37° C., 10 h) | MIC against K. pneumonia (Klebsiella pneumonia; Klebsiella pneumonia, 96-well plate, 5×10^5 CFU/mL, 37° C., 10 h)
50 µg/mL: MIC against P. vulgaris (Proteus vulgaris; Proteus vulgaris, 96-well plate, 5×10^5 CFU/mL, 37° C., 10 h) | MIC against A. hydrophila (Aeromonas hydrophila; Aeromonas hydrophila, 96-well plate, 5×10^5 CFU/mL, 37° C., 10 h) | MIC against P. aeruginosa (Pseudomonas aeruginosa; Pseudomonas aeruginosa, 96-well plate, 5×10^5 CFU/mL, 37° C., 10 h) | MIC (E. coli DH5α)

PRT1102 (TIGSCGKNSCQHGGICHQDPIYPVCICPAGYAGRFCE; listed as Homo sapiens)
12.5 µg/mL: MIC P. vulgaris (Proteus vulgaris; [22]) | MIC A. hydrophila (Aeromonas hydrophila; [22]) | MIC E. cloacae (Enterobacter cloacae; [22]) | MIC P. mirabilis (Proteus mirabilis; [22]) | MIC M. catarrhalis (Moraxella catarrhalis; [22]) | MIC P. aeruginosa (Pseudomonas aeruginosa; [22]) | MIC E. coli BL21 (E. coli BL21; [22]) | MIC C. diversus (Citrobacter diversus; [22]) | MIC (E. coli DH5α) | MIC K. pneumonia (Klebsiella pneumonia; [22])
25 µg/mL: MIC S. marcescens (Serratia marcescens; [22])

PRT905 (DVNECDSQPCLHGGTCQDGCGSYRCTCPQGYTGPNCQ; listed as Homo sapiens)
50 µg/mL: MIC (Proteus vulgaris; [12]) | MIC (Enterobacter cloacae; [14]) | MIC (E. coli BL21; [18]) | MIC (Citrobacter diversus; [20])
12.5 µg/mL: MIC (Aeromonas hydrophila; [13]) | MIC (Proteus mirabilis; [15]) | MIC (Pseudomonas aeruginosa; [17]) | MIC (Serratia marcescens; [19])
25 µg/mL: MIC (Moraxella catarrhalis; [16]) | MIC (E. coli DH5α) | MIC (Klebsiella pneumonia; [21])

PRT1106 (NTDECASQPCLHGGLCVDGENRYSCNCTGSGFTGTHCE; listed as Homo sapiens)
12.5 µg/mL: MIC P. vulgaris (Proteus vulgaris; [22]) | MIC A. hydrophila (Aeromonas hydrophila; [22]) | MIC P. aeruginosa (Pseudomonas aeruginosa; [22])
50 µg/mL: MIC E. cloacae (Enterobacter cloacae; [22]) | MIC M. catarrhalis (Moraxella catarrhalis; [22]) | MIC S. marcescens (Serratia marcescens; [22])
25 µg/mL: MIC P. mirabilis (Proteus mirabilis; [22]) | MIC E. coli BL21 (E. coli BL21; [22]) | MIC C. diversus (Citrobacter diversus; [22]) | MIC (E. coli DH5α) | MIC K. pneumonia (Klebsiella pneumonia; [22])

PRT454 (LPDQCTPNPCDRKGTQACQDLMGNFFCLCKAGWGGRLCD; listed as Homo sapiens)
12.5 µg/mL: MIC against A. hydrophila (Aeromonas hydrophila; [1]) | MIC against P. mirabilis (Proteus mirabilis; [1]) | MIC against E. coli BL21 (E. coli BL21; [1]) | MIC against S. marcescens (Serratia marcescens; [1])
25 µg/mL: MIC against E. cloacae (Enterobacter cloacae; [1]) | MIC against P. aeruginosa (Pseudomonas aeruginosa; [1]) | MIC against C. diversus (Citrobacter diversus; [1])
50 µg/mL: MIC against P. vulgaris (Proteus vulgaris; [1]) | MIC against M. catarrhalis (Moraxella catarrhalis; [1]) | MIC (E. coli DH5α) | MIC against K. pneumonia (Klebsiella pneumonia; [1])

PRT189 (SIDACASSPCFNRATCYTDLSTDTFVCNCPYGFVGSRCE; listed as Homo sapiens)
50 µg/mL: MIC (μg/mL) P. vulgaris (Proteus vulgaris; [2]) | MIC (μg/mL) A. hydrophila (Aeromonas hydrophila; [3])
12.5 µg/mL: MIC (μg/mL) M. catarrhalis (Moraxella catarrhalis; [6]) | MIC (μg/mL) E. coli BL21 (E. coli BL21; [8]) | MIC (μg/mL) K. pneumonia (Klebsiella pneumonia; [11])
25 µg/mL: MIC (μg/mL) E. cloacae (Enterobacter cloacae; [4]) | MIC (μg/mL) P. mirabilis (Proteus mirabilis; [5]) | MIC (μg/mL) P. aeruginosa (Pseudomonas aeruginosa; [7]) | MIC (μg/mL) S. marcescens (Serratia marcescens; [9]) | MIC (μg/mL) C. diversus (Citrobacter diversus; [10]) | MIC (E. coli DH5α)

PRT500 (CNCDPVGSLSSVCIKDDLHSDLHNGKQPGQCPCKEGYTGEKCDRCQLGYKDYPTCVS; listed as Homo sapiens)
25 µg/mL: MIC against E. cloacae (Enterobacter cloacae; [1]) | MIC against P. mirabilis (Proteus mirabilis; [1]) | MIC against P. aeruginosa (Pseudomonas aeruginosa; [1]) | MIC against S. marcescens (Serratia marcescens; [1]) | MIC against C. diversus (Citrobacter diversus; [1]) | MIC (E. coli DH5α)
12.5 µg/mL: MIC against M. catarrhalis (Moraxella catarrhalis; [1]) | MIC against K. pneumonia (Klebsiella pneumonia; [1])
50 µg/mL: MIC against P. vulgaris (Proteus vulgaris; [1]) | MIC against A. hydrophila (Aeromonas hydrophila; [1]) | MIC against E. coli BL21 (E. coli BL21; [1])

PRT641 (QAEECGILNGCENGRCVRVQEGYTCDCFDGYHLDTAK; listed as Homo sapiens)
12.5 µg/mL: MIC P. vulgaris (Proteus vulgaris; [1]) | MIC P. aeruginosa (Pseudomonas aeruginosa; [1]) | MIC C. diversus (Citrobacter diversus; [1])
25 µg/mL: MIC A. hydrophila (Aeromonas hydrophila; [1]) | MIC M. catarrhalis (Moraxella catarrhalis; [1]) | MIC E. coli BL21 (E. coli BL21; [1]) | MIC K. pneumonia (Klebsiella pneumonia; [1])
50 µg/mL: MIC E. cloacae (Enterobacter cloacae; [1]) | MIC P. mirabilis (Proteus mirabilis; [1]) | MIC S. marcescens (Serratia marcescens; [1]) | MIC (E. coli DH5α)

PRT729 (GSNACNQPTHPNGDCSHFCFPVPNFQRVCGCPYGMRLASNHLTCE; listed as Homo sapiens)
12.5 µg/mL: MIC E. cloacae (Enterobacter cloacae; [1]) | MIC P. mirabilis (Proteus mirabilis; [1]) | MIC P. aeruginosa (Pseudomonas aeruginosa; [1]) | MIC C. diversus (Citrobacter diversus; [1]) | MIC (E. coli DH5α)
50 µg/mL: MIC S. marcescens (Serratia marcescens; [1])
25 µg/mL: MIC P. vulgaris (Proteus vulgaris; [1]) | MIC A. hydrophila (Aeromonas hydrophila; [1]) | MIC M. catarrhalis (Moraxella catarrhalis; [1]) | MIC E. coli BL21 (E. coli BL21; [1]) | MIC K. pneumonia (Klebsiella pneumonia; [1])

— patent publication US9833497B2, “Human originated EGF domain proteins and use of the same” (CHENGDU SOURCEBIO LIMITED-LIABILITY COMPANY, priority 2013, dated 2017)
